In patent publication US9896443B2, “Perforin inhibiting benzenesulfonamide compounds, preparation and uses thereof” (Peter MacCallum Cancer Institute, priority 2012, dated 2018):
Where a name gives a salt, the structure may show the parent alone. Read-outs that look alike come from different tables or passages of the source.

Legend:
[1] = system: KHYG-1 NK cell-mediated lysis of K562 cells; experiment: Inhibition of KHYG-1 NK cell-mediated lysis of K562 cells (51Cr release); format: cell-based; settings: K562 target cells, Effector:Target 2:1, 4 hours at 37° C.
Protocol: Inhibition of KHYG-1 NK Cell-Mediated Lysis of K562 Cells.
Test compounds were added to KHYG-1 cells at various concentrations up to 20 µM and incubated at RT for 20 minutes. 1×10^6 K562 target cells were labelled with 75 μCi ^51Cr in 200 μl RPMI for 90 mins at 37° C., cells were washed as described above and resuspended in 5 ml RPMI+0.1% BSA. 50 μl of ^51Cr labelled K562 leukemia target cells were added to each well of the KHYG-1 plate (Effector:Target 2:1) and incubated at 37° C. for 4 hours. ^51Cr release was assayed using a Skatron Harvesting Press and radioactivity estimated on a Wallac Wizard 1470 Automatic Gamma counter (Turku, Finland). The percentage of specific cytotoxicity was calculated by the formula: […]

recombinant perforin = recombinant perforin (UniProt P10820); format: cell-based
Protocol: Inhibition of perforin-mediated lysis of Jurkat cells.
The ability of the compounds to inhibit the lysis of nucleated (Jurkat T lymphoma) cells in the presence of 0.1% BSA, as measured by release of ^51Cr was measured. Jurkat target cells were labelled by incubation in medium with 100 μCi ^51Cr for one hour. The cells were then washed three times to remove unincorporated isotope and re-suspended at 1×10^5 cells per mL in RPMI buffer supplemented with 0.1% BSA. […] Each data point was performed in triplicate and an IC50 was calculated from the range of concentrations described to above.

[2] = lysis of Jurkat T lymphoma cells by recombinant perforin, 0.1% BSA, 30 min pre-incubation, 4 hours at 37° C.; read-out: Jurkat IC50
[3] = read-out: Jurkat IC50; lysis of Jurkat T lymphoma cells by recombinant perforin, 0.1% BSA, 30 min pre-incubation, 4 hours at 37° C.

recombinant perforin, sequence (P10820 whole entry): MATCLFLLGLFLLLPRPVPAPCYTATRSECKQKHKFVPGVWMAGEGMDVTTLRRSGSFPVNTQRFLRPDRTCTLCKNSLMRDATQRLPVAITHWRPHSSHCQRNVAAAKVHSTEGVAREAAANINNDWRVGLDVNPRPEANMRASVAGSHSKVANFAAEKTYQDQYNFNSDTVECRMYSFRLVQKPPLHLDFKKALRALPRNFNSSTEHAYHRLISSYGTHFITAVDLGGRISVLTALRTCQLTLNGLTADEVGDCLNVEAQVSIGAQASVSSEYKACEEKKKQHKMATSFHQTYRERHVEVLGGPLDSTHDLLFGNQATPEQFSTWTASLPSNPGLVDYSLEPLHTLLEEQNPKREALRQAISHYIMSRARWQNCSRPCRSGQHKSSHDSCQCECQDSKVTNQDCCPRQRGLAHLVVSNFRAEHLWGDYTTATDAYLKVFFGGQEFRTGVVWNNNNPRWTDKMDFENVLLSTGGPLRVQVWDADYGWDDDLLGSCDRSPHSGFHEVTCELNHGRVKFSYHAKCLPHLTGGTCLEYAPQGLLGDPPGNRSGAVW

CN1Cc2cc(-c3ccc(-c4cncc(NS(=O)(=O)c5ccc(F)cc5F)c4)s3)ccc2C1=O [Compound 1, 2,4-Difluoro-N-(5-(5-(2-methyl-1-oxoisoindolin-5-yl)thiophen-2-yl)pyridin-3-yl)benzenesulfonamide]
inhibition at 20 µM ([1]; 4 h): 46%

CN1Cc2cc(-c3ccc(-c4cncc(NS(=O)(=O)c5ccc(F)cc5)c4)s3)ccc2C1=O [Compound 6, 4-Fluoro-N-(5-(5-(2-methyl-1-oxoisoindolin-5-yl)thiophen-2-yl)pyridin-3-yl)benzene-sulfonamide]
IC50 (recombinant perforin; [2]): 9.65 µM | inhibition at 20 µM ([1]; 4 h): 10%

CN1Cc2cc(-c3ccc(-c4cncc(NS(=O)(=O)c5c(F)cc(F)cc5F)c4)s3)ccc2C1=O [Compound 8, 2,4,6-Trifluoro-N-(5-(5-(2-methyl-1-oxoisoindolin-5-yl)thiophen-2-yl)pyridin-3-yl)benzene-sulfonamide]
IC50 (recombinant perforin; [2]): 1.76 µM | inhibition at 20 µM ([1]; 4 h): 52%

CN1Cc2cc(-c3ccc(-c4cncc(NS(=O)(=O)c5ccc(Cl)cc5)c4)s3)ccc2C1=O [Compound 11, 4-Chloro-N-(5-(5-(2-methyl-1-oxoisoindolin-5-yl)thiophen-2-yl)pyridin-3-yl)benzenesulfonamide]
IC50 (recombinant perforin; [2]): 5.39 µM | inhibition at 20 µM [1]: 17%

CN1Cc2cc(-c3ccc(-c4cncc(NS(=O)(=O)c5ccc(Cl)cc5)c4)s3)ccc2C1=O [Compound 11.Na, 4-Chloro-N-(5-(5-(2-methyl-1-oxoisoindolin-5-yl)thiophen-2-yl)pyridin-3-yl)benzenesulfonamide]
IC50 (recombinant perforin; [2]): 8.28 µM | inhibition at 20 µM ([1]; 4 h): 14%

CN1Cc2cc(-c3ccc(-c4cncc(NS(=O)(=O)c5cccc(Cl)c5F)c4)s3)ccc2C1=O [Compound 14, 3-Chloro-2-fluoro-N-(5-(5-(2-methyl-1-oxoisoindolin-5-yl)thiophen-2-yl)pyridin-3-yl)benzenesulfonamide]
IC50 (recombinant perforin; [2]): 13 µM

COc1ccc(S(=O)(=O)Nc2cncc(-c3ccc(-c4ccc5c(c4)CN(C)C5=O)s3)c2)cc1OC [Compound 21.Na, 3,4-Dimethoxy-N-(5-(5-(2-methyl-1-oxoisoindolin-5-yl)thiophen-2-yl)pyridin-3-yl)benzenesulfonamide, sodium salt]
inhibition at 20 µM ([1]; 4 h): 31%

CN1Cc2cc(-c3ccc(-c4cncc(NS(=O)(=O)c5ccccc5[N+](=O)[O-])c4)s3)ccc2C1=O [Compound 28, N-(5-(5-(2-Methyl-1-oxoisoindolin-5-yl)thiophen-2-yl)pyridin-3-yl)-2-nitrobenzenesulfonamide]
IC50 (recombinant perforin; [2]): 6.65 µM | inhibition at 20 µM ([1]; 4 h): 71%

CN1Cc2cc(-c3ccc(-c4cncc(NS(=O)(=O)c5ccc([N+](=O)[O-])cc5)c4)s3)ccc2C1=O [Compound 29, N-(5-(5-(2-Methyl-1-oxoisoindolin-5-yl)thiophen-2-yl)pyridin-3-yl)-4-nitrobenzenesulfonamide]
IC50 (recombinant perforin; [2]): 2.74 µM | inhibition at 20 µM ([1]; 4 h): 48%

CN1Cc2cc(-c3ccc(-c4cncc(NS(=O)(=O)c5ccc([N+](=O)[O-])cc5)c4)s3)ccc2C1=O [Compound 29.Na, N-(5-(5-(2-Methyl-1-oxoisoindolin-5-yl)thiophen-2-yl)pyridin-3-yl)-4-nitrobenzenesulfonamide]
IC50 (recombinant perforin; [2]): 3.34 µM | Inhibition of KHYG-1 at 20 μM (%) [1]: 49%

CN1Cc2cc(-c3ccc(-c4cncc(NS(=O)(=O)c5ccc(C#N)cc5)c4)s3)ccc2C1=O [Compound 30, 4-Cyano-N-(5-(5-(2-methyl-1-oxoisoindolin-5-yl)thiophen-2-yl)pyridin-3-yl)benzenesulfonamide]
IC50 (recombinant perforin; [2]): 5.17 µM | inhibition at 20 µM ([1]; 4 h): 49%

CN1Cc2cc(-c3ccc(-c4cnc(F)c(NS(=O)(=O)c5ccc(F)cc5F)c4)s3)ccc2C1=O [Compound 39, 2,4-Difluoro-N-(2-fluoro-5-(5-(2-methyl-1-oxoisoindolin-5-yl)thiophen-2-yl)pyridin-3-yl)benzenesulphonamide]
IC50 (recombinant perforin; [2]): 1.99 µM | inhibition at 20 µM ([1]; 4 h): 56%

CN1Cc2cc(-c3ccc(-c4cnc(F)c(NS(=O)(=O)c5ccc(F)cc5F)c4)s3)ccc2C1=O [Compound 39.Na, 2,4-Difluoro-N-(2-fluoro-5-(5-(2-methyl-1-oxoisoindolin-5-yl)thiophen-2-yl)pyridin-3-yl)benzenesulphonamide]
IC50 (recombinant perforin; [2]): 0.75 µM | Inhibition of KHYG-1 at 20 μM (%) [1]: 48%

CN1Cc2cc(-c3ccc(-c4cnc(Cl)c(NS(=O)(=O)c5ccc(F)cc5F)c4)s3)ccc2C1=O [Compound 40, 2,4-Difluoro-N-(2-chloro-5-(5-(2-methyl-1-oxoisoindolin-5-yl)thiophen-2-yl)pyridin-3-yl)benzenesulphonamide]
IC50 (recombinant perforin; [2]): 1.03 µM | inhibition at 20 µM ([1]; 4 h): 85%

O=C1NCc2cc(-c3ccc(-c4cncc(NS(=O)(=O)c5ccc(F)cc5F)c4)s3)ccc21 [Compound 48, 2,4-Difluoro-N-(5-(5-(1-oxoisoindolin-5-yl)thiophen-2-yl)pyridin-3-yl)benzenesulfonamide]
inhibition at 20 µM ([1]; 4 h): 35%

O=C1NCc2ccc(-c3ccc(-c4cncc(NS(=O)(=O)c5ccc(F)cc5F)c4)s3)cc21 [Compound 49, 2,4-Difluoro-N-(5-(5-(3-oxoisoindolin-5-yl)thiophen-2-yl)pyridin-3-yl)benzenesulfonamide]
IC50 (recombinant perforin; [3]): 13.2 µM | inhibition at 20 µM ([1]; 4 h): 49%

CN1Cc2cc(-c3ccc(-c4cncc(NS(=O)(=O)c5ccccc5)c4)s3)ccc2C1=O [Compound 62, N-(5-(5-(2-Methyl-1-oxoisoindolin-5-yl)thiophen-2-yl)pyridin-3-yl)benzenesulphonamide]
IC50 (recombinant perforin; [2]): 8.46 µM | inhibition at 20 µM ([1]; 4 h): 9.71 ± 2%

CN1Cc2cc(-c3ccc(-c4ccc(OC(F)(F)F)c(NS(=O)(=O)c5ccccn5)c4)s3)ccc2C1=O [Compound 63.Na, N-(5-(5-(2-Methyl-1-oxoisoindolin-5-yl)thiophen-2-yl)-2-(trifluoromethoxy)phenyl)pyridine-2-sulfonamide]
IC50 (recombinant perforin; [2]): 19.6 µM | Inhibition of KHYG-1 at 20 μM (%) [1]: 77.07 ± 5%

CN1C(=O)Cc2cc(-c3ccc(-c4cncc(NS(=O)(=O)c5ccc(F)cc5F)c4)s3)ccc21 [Compound 66, 2,4-Difluoro-N-(5-(5-(1-methyl-2-oxoindolin-5-yl)thiophen-2-yl)pyridin-3-yl)benzenesulfonamides]
IC50 (recombinant perforin; [3]): 10.2 µM | inhibition at 20 µM ([1]; 4 h): 34.3 ± 9%

CN1Cc2cc(-c3ccc(-c4cncc(NC(=S)NC(=O)c5ccc(F)cc5)c4)s3)ccc2C1=O [Compound 68, 4-Fluoro-N-((5-(5-(2-methyl-1-oxoisoindolin-5-yl)thiophen-2-yl)pyridin-3-yl)carbamothioyl)benzamide]
IC50 (recombinant perforin; [2]): 15.9 µM

O=C1c2ccc(-c3ccc(-c4cncc(NS(=O)(=O)c5ccc(F)cc5F)c4)s3)cc2CN1CCN1CCOCC1 [Compound 69, 2,4-Difluoro-N-(5-(5-(2-(2-morpholinoethyl)-1-oxoisoindolin-5-yl)thiophen-2-yl)pyridin-3-yl)benzenesulfonamide]
IC50 (recombinant perforin; [2]): 17 µM

O=S(=O)(Nc1cncc(-c2ccc(-c3ccc4[nH]ccc4c3)s2)c1)c1ccc(F)cc1F [Compound 71, N-(5-(5-(1H-indol-5-yl)thiophen-2-yl)pyridin-3-yl)-2,4-difluorobenzenesulfonamide]
inhibition at 20 µM ([1]; 4 h): 87.7 ± 9%

CN1Cc2cc(-c3ccc(-c4cncc(NS(=O)(=O)c5ccccc5C#N)c4)s3)ccc2C1=O [Compound 79.Na, 2-Cyano-N-(5-(5-(2-methyl-1-oxoisoindolin-5-yl)thiophen-2-yl)pyridin-3-yl)benzenesulfonamides]
IC50 (recombinant perforin; [2]): 9.17 µM

Cc1cc(C)n(-c2ccc(S(=O)(=O)Nc3cncc(-c4ccc(-c5ccc6c(c5)CN(C)C6=O)s4)c3)cc2)n1 [Compound 80, 4-(3,5-Dimethyl-1H-pyrazol-1-yl)-N-(5-(5-(2-methyl-1-oxoisoindolin-5-yl)thiophen-2-yl)pyridin-3-yl)benzenesulfonamides]
IC50 (recombinant perforin; [2]): 19.1 µM

CN1Cc2cc(-c3ccc(-c4cncc(NS(=O)(=O)c5ccc(F)cc5F)c4)nc3)ccc2C1=O [Compound 83, 2,4-Difluoro-N-(5-(2-methyl-1-oxoisoindolin-5-yl)-[2,3′-bipyridin]-5′-yl)benzenesulphonamide]
IC50 (recombinant perforin; [2]): 8.17 µM

CCOC(=O)c1ccc(S(=O)(=O)Nc2cncc(-c3ccc(-c4ccc5c(c4)CN(C)C5=O)s3)c2)cc1 [Compound 85, Ethyl 4-(N-(5-(5-(2-methyl-1-oxoisoindolin-5-yl)thiophen-2-yl)pyridin-3-yl)sulfamoyl)benzoate]
IC50 (recombinant perforin; [2]): 19.4 µM

CN1Cc2cc(-c3ccc(-c4cnc(F)c(NS(=O)(=O)c5ccccn5)c4)s3)ccc2C1=O [Compound 90, N-(2-Fluoro-5-(5-(2-methyl-1-oxoisoindolin-5-yl)thiophen-2-yl)pyridin-3-yl)pyridine-2-sulfonamide]
IC50 (recombinant perforin; [2]): 4.1 µM

COC(=O)c1cccc(S(=O)(=O)Nc2cncc(-c3ccc(-c4ccc5c(c4)CN(C)C5=O)s3)c2)c1 [Compound 91, Methyl 3-(N-(5-(5-(2-methyl-1-oxoisoindolin-5-yl)thiophen-2-yl)pyridin-3-yl)sulfamoyl)benzoate]
IC50 (recombinant perforin; [2]): 7.77 µM
